Measured values published in PubChem BioAssay (NCI).
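Step 1: Grow cells in 96-well plates. Step 2: Expose to compound for 48 hours at 5 concentrations. Step 3: Interpolate endpoints linearly; if unreached, use highest concentration. Abbreviation: GI50, concentration required for 50% inhibition of growth. The concentration for full growth arrest is given as TGI.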 *1 amine or outer side, *2 acyl side, *3 side chain or, on linkers, in order; H or OH if unused. Where a SMILES comes first, the peptide text is derived from it. CO = O=C([*:1])[*:2]

Experiments:
Test in all cases: inhibition of tumour cell growth, NCI panel, 48 h
A498 renal = test system: A498 renal
BT-549 breast = test system: BT-549 breast
COLO 205 colon = test system: COLO 205 colon
EKVX NSCLC = test system: EKVX NSCLC
NCI-H23 lung = test system: NCI-H23 lung
SF-268 CNS = test system: SF-268 CNS
SF-539 CNS = test system: SF-539 CNS
SN12C renal = test system: SN12C renal
SNB-19 CNS = test system: SNB-19 CNS
UACC-257 melanoma = test system: UACC-257 melanoma

Compound | TGI (A498 renal) [µM] | TGI (BT-549 breast) [µM] | TGI (COLO 205 colon) [µM] | TGI (EKVX NSCLC) [µM] | TGI (NCI-H23 lung) [µM] | TGI (SF-268 CNS) [µM] | TGI (SF-539 CNS) [µM] | TGI (SN12C renal) [µM] | TGI (SNB-19 CNS) [µM] | TGI (UACC-257 melanoma) [µM] | GI50 (A498 renal) [µM] | GI50 (BT-549 breast) [µM] | GI50 (COLO 205 colon) [µM] | GI50 (EKVX NSCLC) [µM] | GI50 (NCI-H23 lung) [µM] | GI50 (SF-268 CNS) [µM] | GI50 (SF-539 CNS) [µM] | GI50 (SN12C renal) [µM] | GI50 (SNB-19 CNS) [µM] | GI50 (UACC-257 melanoma) [µM]
Nc1ccn(C2OC(COP(=O)(O)O)C(O)C2O)c(=O)n1 (stereo not given) | > 100 | > 100 | > 100 | > 100 | > 100 | > 100 | > 30.2 | > 100 | > 100 | > 100 |  |  |  |  |  |  |  |  |  | 
Fc1ccc(Nc2ccc3cc(OCCCN4CCOCC4)ccc3n2)cc1F | 7.64 | 52.1 | 3.84 | > 100 | > 100 | > 100 | 18.7 | > 100 | 7.99 | 6.88 | 2.21 | 7.28 | 1.96 | 5.86 | 3.93 | 6.55 | 3.22 | 9.77 | 2.78 | 2.77
O=C(/C=C/C12c3ccccc3C(c3ccccc31)C1C(=O)NC(=O)C12)c1ccco1 (stereo not given) | 6.05 | 7.53 | 9.32 | 11 | 4.83 | 9.1 | 4.16 | 11.3 | 5.17 | 15.6 | 2.42 | 2.89 | 3.27 | 3.16 | 2.22 | 2.72 | 2.04 | 3.21 | 2.19 | 4.4
c1cncc(-c2cc(-c3cc(-c4cccnc4)n[nH]3)[nH]n2)c1 | > 100 | > 100 | > 100 | > 100 | > 100 | > 100 | > 100 | > 100 | > 100 | > 100 |  |  |  |  |  |  |  |  |  | 
COc1cc(/C=C2\C[C@H]3[C@@H]4CC=C5C[C@@H](OC(C)=O)CC[C@]5(C)[C@H]4CC[C@]3(C)[C@H]2OC(C)=O)ccc1OCCCn1ccnc1 | 15 | 13.6 | 38.5 | 20 | 21.1 | 21.6 | 12.5 | 21.9 | > 50 | 17.3 | 7.19 | 5.68 | 11.6 | 9.49 | 9.94 | 9.63 | 4.72 | 8.84 | 21.3 | 8.43
CC(C)C(NC(=O)C(CCCN=C(N)N)NC(=O)NC(Cc1ccccc1)C(=O)O)C(=O)NC(C=O)CCCN=C(N)N (stereo not drawn) ({Phe-CO}-Arg-Val-Arg-aldehyde; configuration not given here) | > 5 | > 5 | > 5 | > 5 | > 5 | > 5 | > 5 | > 5 | > 5 | > 5 | > 5 | > 5 | > 5 | > 5 | > 5 | > 5 | > 5 | > 5 | > 5 | > 5
